We go through eleven compounds from ChEMBL document CHEMBL5465560, “Selectivity Literature for EUbOPEN Chemogenomic Library” (2024).

For assay [1], the target named is High affinity nerve growth factor receptor (Homo sapiens, UniProt P04629). As to the kind of experiment: Selectivity interaction (KinomeScan (DiscoverX)) EUB0000607a NTRK1. As to conditions: at 10 µM.
Assay [2] concerns the target Phosphatidylinositol 4-kinase beta (Homo sapiens, UniProt Q9UBF8). The experiment in a line: Selectivity interaction (KinomeScan (DiscoverX)) EUB0000655a PI4KB. As to conditions: at 10 µM.
In assay [3] the target is Glycogen synthase kinase-3 beta (Homo sapiens, UniProt P49841). The experiment in a line: Selectivity interaction (Kinase panel (literature)) EUB0001199aCl GSK3B. As to conditions: at 1 µM.
Sequence of Glycogen synthase kinase-3 beta (P49841 whole entry, looked up): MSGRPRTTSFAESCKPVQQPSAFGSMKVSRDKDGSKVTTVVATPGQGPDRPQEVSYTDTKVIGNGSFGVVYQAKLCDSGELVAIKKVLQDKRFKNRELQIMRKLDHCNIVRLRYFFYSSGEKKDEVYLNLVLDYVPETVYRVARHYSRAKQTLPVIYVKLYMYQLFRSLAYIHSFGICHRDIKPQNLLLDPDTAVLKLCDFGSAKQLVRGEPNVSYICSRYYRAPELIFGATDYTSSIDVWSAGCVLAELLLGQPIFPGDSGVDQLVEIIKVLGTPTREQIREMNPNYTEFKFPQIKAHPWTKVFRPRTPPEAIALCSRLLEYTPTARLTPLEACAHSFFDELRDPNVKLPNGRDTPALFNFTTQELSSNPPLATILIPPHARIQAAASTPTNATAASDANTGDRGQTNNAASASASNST
In assay [4] the target is Serine/threonine-protein kinase Nek7 (Homo sapiens) (UniProt Q8TDX7). The experiment in a line: Selectivity interaction (ActivX KiNativ screen (kinase selectivity in THP-1 cell lysates)) EUB0000639a NEK7. The assay is classed as subcellular. As to conditions: lysate.
Sequence of Serine/threonine-protein kinase Nek7 (Homo sapiens) (Q8TDX7 whole entry, looked up): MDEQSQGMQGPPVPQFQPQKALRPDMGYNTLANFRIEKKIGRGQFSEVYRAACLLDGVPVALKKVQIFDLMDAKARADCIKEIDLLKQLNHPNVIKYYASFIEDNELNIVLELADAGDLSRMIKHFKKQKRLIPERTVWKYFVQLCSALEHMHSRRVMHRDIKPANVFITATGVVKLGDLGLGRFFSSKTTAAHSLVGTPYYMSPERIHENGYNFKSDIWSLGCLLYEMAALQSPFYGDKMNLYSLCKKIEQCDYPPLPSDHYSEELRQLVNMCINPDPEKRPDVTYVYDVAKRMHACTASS
The target of assay [5] is T1, Tyrosine-protein kinase Tec (Homo sapiens) (UniProt P42680).
T1 sequence (whole entry): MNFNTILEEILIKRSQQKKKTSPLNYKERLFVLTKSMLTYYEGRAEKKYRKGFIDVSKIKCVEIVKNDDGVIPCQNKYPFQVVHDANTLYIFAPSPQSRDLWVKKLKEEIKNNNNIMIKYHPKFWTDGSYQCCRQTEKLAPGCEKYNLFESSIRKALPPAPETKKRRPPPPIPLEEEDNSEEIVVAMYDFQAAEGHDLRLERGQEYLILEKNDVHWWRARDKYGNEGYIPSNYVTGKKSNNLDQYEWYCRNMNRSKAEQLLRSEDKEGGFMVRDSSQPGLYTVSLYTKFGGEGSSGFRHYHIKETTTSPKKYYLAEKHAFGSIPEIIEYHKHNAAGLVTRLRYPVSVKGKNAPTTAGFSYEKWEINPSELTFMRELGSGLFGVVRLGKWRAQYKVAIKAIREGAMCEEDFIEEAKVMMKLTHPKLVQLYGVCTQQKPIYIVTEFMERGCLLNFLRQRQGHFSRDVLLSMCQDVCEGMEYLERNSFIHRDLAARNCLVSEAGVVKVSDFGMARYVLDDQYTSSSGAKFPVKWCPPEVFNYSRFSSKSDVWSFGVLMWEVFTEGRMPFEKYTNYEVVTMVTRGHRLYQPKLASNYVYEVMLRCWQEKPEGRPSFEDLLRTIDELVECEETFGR
The experiment in a line: Selectivity interaction (ActivX KiNativ screen (kinase selectivity in THP-1 cell lysates)) EUB0000639a TEC. The assay is classed as subcellular. As to conditions: lysate, at 1 µM.

Assay [6] addresses T2, Serine/threonine-protein kinase ULK3 (Homo sapiens) (UniProt Q6PHR2).
T2 sequence (whole entry): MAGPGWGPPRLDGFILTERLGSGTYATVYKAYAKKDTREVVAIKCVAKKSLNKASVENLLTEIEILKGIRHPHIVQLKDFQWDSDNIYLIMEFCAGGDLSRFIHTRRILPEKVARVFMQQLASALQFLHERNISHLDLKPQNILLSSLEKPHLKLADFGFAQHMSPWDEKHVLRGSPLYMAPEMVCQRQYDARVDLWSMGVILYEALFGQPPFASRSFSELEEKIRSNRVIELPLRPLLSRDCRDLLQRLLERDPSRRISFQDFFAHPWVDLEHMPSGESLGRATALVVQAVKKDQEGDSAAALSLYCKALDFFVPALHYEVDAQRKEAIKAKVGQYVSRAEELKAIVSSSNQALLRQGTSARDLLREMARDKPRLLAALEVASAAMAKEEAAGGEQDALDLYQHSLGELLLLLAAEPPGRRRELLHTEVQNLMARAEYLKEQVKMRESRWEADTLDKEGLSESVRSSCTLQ
As to the kind of experiment: Selectivity interaction (ActivX KiNativ screen (kinase selectivity in THP-1 cell lysates)) EUB0000639a ULK3. The assay is classed as subcellular. As to conditions: lysate, at 1 µM.

Assay [7] deals with Calcium/calmodulin-dependent protein kinase type 1D (Homo sapiens) (UniProt Q8IU85). As to conditions: at 10 µM.
Sequence of Calcium/calmodulin-dependent protein kinase type 1D (Homo sapiens) (Q8IU85 whole entry, looked up): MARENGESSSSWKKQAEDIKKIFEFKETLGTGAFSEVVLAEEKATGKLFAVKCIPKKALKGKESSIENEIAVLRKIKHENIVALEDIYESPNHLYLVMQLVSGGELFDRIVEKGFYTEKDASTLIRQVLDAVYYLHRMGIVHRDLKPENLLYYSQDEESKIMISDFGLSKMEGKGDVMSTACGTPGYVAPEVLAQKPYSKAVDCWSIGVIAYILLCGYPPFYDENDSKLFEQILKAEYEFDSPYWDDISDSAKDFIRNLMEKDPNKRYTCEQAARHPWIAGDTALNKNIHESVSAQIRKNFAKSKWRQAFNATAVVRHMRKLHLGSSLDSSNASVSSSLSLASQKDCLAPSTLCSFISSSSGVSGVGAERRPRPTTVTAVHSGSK
In assay [8] the target is Myosin light chain kinase, smooth muscle (Homo sapiens, UniProt Q15746). As to conditions: at 10 µM.
Assay [9] deals with Rho-associated protein kinase 2 (Homo sapiens, UniProt O75116). As to the kind of experiment: Selectivity interaction (Millipore kinase profiler) EUB0000124b ROCK2. As to conditions: at 10 µM.
Sequence of Rho-associated protein kinase 2 (O75116 whole entry, looked up): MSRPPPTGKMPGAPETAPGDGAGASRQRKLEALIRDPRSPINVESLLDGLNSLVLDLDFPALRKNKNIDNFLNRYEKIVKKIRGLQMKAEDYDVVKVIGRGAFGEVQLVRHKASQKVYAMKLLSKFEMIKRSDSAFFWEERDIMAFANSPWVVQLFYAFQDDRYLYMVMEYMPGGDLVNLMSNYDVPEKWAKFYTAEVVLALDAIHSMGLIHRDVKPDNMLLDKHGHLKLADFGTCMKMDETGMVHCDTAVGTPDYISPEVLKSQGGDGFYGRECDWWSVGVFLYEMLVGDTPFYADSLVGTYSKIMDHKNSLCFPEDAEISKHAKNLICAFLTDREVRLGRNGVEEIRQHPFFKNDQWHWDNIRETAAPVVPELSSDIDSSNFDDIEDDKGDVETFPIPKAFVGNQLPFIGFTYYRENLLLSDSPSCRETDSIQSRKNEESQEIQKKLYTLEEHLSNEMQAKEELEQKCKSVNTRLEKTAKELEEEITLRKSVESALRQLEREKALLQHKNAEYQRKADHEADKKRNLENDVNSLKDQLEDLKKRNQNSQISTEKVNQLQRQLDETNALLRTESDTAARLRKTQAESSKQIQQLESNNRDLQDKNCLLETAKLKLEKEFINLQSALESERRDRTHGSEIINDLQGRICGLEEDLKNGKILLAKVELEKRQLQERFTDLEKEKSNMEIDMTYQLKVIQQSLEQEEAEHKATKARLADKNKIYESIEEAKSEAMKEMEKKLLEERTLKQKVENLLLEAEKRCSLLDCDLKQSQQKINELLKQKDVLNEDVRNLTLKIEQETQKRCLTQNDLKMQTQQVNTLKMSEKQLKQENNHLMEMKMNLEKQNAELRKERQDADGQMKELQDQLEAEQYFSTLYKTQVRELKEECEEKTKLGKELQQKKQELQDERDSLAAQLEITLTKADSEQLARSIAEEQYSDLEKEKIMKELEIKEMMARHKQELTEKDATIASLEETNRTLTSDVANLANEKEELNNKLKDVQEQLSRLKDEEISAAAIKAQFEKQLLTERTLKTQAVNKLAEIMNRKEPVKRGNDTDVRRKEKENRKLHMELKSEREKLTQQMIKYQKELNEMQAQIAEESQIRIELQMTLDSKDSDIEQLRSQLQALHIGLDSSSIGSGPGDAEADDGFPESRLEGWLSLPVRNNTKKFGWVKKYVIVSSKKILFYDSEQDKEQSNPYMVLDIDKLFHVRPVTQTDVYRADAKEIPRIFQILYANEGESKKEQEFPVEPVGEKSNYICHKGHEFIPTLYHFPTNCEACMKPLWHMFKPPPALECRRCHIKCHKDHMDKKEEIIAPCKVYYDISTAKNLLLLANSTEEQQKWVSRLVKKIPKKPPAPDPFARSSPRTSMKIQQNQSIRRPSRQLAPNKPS
Assay [10] addresses Tyrosine-protein kinase Srms (Homo sapiens) (UniProt Q9H3Y6). As to the kind of experiment: Selectivity interaction (ProQinase) EUB0000171b SRMS.
The target of assay [11] is T3, MAP/microtubule affinity-regulating kinase 4 (Homo sapiens) (UniProt Q96L34).
T3 sequence (whole entry): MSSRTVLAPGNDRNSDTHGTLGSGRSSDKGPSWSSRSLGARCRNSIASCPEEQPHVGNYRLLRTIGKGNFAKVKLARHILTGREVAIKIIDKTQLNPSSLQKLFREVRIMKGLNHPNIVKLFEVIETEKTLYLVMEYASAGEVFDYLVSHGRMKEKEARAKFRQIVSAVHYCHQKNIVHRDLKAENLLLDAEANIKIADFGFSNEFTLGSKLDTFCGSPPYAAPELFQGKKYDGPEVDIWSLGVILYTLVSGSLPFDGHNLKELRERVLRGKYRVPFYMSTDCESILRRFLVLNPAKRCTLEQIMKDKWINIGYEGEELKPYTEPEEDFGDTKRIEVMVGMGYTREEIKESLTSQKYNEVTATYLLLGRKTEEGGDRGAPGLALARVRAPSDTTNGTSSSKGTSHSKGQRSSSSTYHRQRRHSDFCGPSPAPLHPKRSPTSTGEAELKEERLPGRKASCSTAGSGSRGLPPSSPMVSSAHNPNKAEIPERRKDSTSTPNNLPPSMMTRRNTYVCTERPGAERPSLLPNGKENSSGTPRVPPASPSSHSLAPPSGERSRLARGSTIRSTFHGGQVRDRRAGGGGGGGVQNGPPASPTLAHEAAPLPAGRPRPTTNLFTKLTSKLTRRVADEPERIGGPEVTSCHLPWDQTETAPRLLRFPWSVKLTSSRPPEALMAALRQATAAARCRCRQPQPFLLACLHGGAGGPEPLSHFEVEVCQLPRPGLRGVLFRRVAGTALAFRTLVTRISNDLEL
The experiment in a line: Selectivity interaction (KinomeScan (DiscoverX)) EUB0000045b MARK4.

The target in assay [12] is Serine/threonine-protein kinase N2 (Homo sapiens, UniProt Q16513). The experiment in a line: Selectivity interaction (KinomeScan (DiscoverX)) EUB0000618a PKN2. As to conditions: at 10 µM.
Assay [13] has as its target Proto-oncogene tyrosine-protein kinase ROS (Homo sapiens) (UniProt P08922). The experiment in a line: Selectivity interaction (KinomeScan (DiscoverX)) EUB0000618a ROS1. As to conditions: at 10 µM.
The target in assay [14] is cAMP-dependent protein kinase catalytic subunit alpha (Homo sapiens, UniProt P17612). The experiment in a line: Selectivity interaction (Upstate Kinase Profiler service (Millipore)) EUB0000056c PRKACA. As to conditions: at 1 µM.
The target in assay [15] is SRSF protein kinase 3 (Homo sapiens) (UniProt Q9UPE1). As to the kind of experiment: Selectivity interaction (KinomeScan (DiscoverX)) EUB0000595a SRPK3. As to conditions: at 10 µM.
Sequence of SRSF protein kinase 3 (Homo sapiens) (Q9UPE1 whole entry): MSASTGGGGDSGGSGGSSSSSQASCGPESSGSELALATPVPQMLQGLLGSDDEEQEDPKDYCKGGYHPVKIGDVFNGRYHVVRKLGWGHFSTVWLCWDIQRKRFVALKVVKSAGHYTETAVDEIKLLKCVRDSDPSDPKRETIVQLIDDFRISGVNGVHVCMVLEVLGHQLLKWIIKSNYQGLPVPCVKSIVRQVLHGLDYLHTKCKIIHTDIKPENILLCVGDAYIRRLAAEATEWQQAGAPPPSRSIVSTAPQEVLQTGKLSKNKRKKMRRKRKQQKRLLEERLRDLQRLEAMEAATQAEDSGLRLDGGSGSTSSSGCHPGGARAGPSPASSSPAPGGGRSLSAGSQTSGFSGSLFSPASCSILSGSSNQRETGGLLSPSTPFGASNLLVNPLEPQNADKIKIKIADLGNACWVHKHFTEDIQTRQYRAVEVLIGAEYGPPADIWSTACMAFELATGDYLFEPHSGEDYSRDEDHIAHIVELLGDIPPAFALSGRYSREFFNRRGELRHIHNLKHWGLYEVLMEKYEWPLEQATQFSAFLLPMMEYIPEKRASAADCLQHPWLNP

Sequence of Tyrosine-protein kinase Srms (Homo sapiens) (Q9H3Y6 whole entry): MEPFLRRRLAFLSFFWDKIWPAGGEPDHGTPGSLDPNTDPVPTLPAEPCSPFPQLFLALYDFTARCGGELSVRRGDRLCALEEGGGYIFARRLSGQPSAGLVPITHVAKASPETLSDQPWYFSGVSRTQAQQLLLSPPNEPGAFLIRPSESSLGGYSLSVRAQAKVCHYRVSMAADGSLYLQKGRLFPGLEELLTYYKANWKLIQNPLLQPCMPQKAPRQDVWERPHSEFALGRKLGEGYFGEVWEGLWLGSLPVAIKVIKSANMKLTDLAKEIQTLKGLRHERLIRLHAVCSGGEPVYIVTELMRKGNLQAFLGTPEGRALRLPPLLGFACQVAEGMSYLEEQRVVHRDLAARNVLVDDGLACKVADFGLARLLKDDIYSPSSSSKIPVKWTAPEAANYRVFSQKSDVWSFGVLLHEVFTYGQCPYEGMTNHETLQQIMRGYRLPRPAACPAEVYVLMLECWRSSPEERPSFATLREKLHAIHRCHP
Sequence of Phosphatidylinositol 4-kinase beta (Q9UBF8 2-816 limits assumed): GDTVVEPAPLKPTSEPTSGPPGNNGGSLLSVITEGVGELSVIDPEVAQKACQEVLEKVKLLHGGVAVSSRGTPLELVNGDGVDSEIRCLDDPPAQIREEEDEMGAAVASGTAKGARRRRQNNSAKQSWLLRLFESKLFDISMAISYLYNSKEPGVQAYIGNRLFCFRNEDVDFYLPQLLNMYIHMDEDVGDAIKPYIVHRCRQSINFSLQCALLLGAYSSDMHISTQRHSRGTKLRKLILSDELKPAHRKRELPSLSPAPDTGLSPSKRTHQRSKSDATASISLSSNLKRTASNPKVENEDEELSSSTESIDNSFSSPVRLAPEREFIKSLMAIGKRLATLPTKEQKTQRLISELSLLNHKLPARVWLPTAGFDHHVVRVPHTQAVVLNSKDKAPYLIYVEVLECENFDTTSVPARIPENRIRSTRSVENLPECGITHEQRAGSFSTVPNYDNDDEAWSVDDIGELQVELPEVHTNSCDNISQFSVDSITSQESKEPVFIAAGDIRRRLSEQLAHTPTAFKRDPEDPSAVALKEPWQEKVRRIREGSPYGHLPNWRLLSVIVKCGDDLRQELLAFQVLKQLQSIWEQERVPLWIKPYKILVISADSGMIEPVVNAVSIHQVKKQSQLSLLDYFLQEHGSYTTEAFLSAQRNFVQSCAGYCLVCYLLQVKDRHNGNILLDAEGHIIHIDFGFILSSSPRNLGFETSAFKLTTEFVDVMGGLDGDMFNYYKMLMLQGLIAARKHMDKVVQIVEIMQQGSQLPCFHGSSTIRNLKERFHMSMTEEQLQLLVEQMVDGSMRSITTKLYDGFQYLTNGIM

In assay [1], `CNC(=O)Nc1ccc(-c2nc(N3CC4CCC(C3)O4)c3cnn(C4CCC5(CC4)OCCO5)c3n2)cc1` had a % of control of 100%. `CN(C)CCOc1ccc(-c2nc(-c3ccncc3)c(-c3ccc4c(c3)CC/C4=N\O)[nH]2)cc1` came in with a % of control in assay [2] of 88%.

`CN1Cc2nccc(-c3cn(C)nc3-c3ccc(F)cc3)c2C1=O`: the % of inhibition in [3] is 1%.

For `CC[C@@H]1[C@H](F)C(=O)N[C@@H]1COc1nccc2cc(C(N)=O)c(OC)cc12` [ZIMLOVISERTIB], the % of inhibition is -4% in assay [4] (at 0.01 µM); -1.1% in assay [4] (at 0.04 µM); -1.6% in assay [4] (at 0.2 µM); 10.8% in assay [4] (at 1 µM); -20% in assay [4] (at 5 µM); -60.5% in assay [5]. For the same compound, the % of inhibition in [6] was -4.6%. Consider `CCN(CC)CCCCNc1ncc2cc(-c3cc(OC)cc(OC)c3)c(NC(=O)NC(C)(C)C)nc2n1`, for which the % of control in assay [7] and in assay [8] was 100% each time.

`CC(=O)Nc1cccc(-n2c(=O)n(C3CC3)c(=O)c3c(Nc4ccc(I)cc4F)n(C)c(=O)c(C)c32)c1` yielded a % of control in assay [9] of 99%.

In the case of `C=CC(=O)Nc1cccc(C(=O)Nc2ccc(Nc3cc(-c4[nH]c(SC)nc4C)ccn3)cc2)c1`, the values for the % of control in assay [10] (at 1 µM) and in assay [10] (at 5 µM) were 95% and 92%, respectively. Regarding `C=CC(=O)Nc1cc(-n2c(=O)ccc3cnc4ccc(-c5ccc(NS(C)(=O)=O)cc5)cc4c32)ccc1C`, the figures for the % of control in [11] (at 1 µM) and in [11] (at 10 µM) were 80% and 76%, respectively. Consider `O[C@H]1CC[C@H](Nc2ncc3nc(Nc4c(F)cc(F)cc4F)n([C@H]4CCOC4)c3n2)CC1`, for which the figures for the % of control in assay [12] and in assay [13] were 97% and 95%, respectively.

For the compound `Cc1ccc(-c2ccc3c(ccc4sc5c(c43)NC[C@@H](C)NC5=O)n2)cn1`, the % of inhibition in assay [14] amounted to 14%. Take `COCC(=O)NC/C=C/c1ccc2ncnc(Nc3ccc(Oc4ccc(C)nc4)c(C)c3)c2c1` [CP-724714]: the % of control in assay [15] stood at 100%.
